Columns and labels:
[1] = tested on: pERK in H460 cells; assay: Inhibition of KRas phosphorylation of ERK (Cisbio HTRF pERK assay); conditions: Homo sapiens, NCI-H460, read-out: Inhibition (HTRF IC50) of KRas-mediated Phosphorylation of ERK, H460
[2] = tested on: pERK in PSN1 cells; assay: as above; conditions: Homo sapiens, PSN1, 3 h, read-out: Inhibition (HTRF IC50) of KRas-mediated Phosphorylation of ERK, PSN1
[3] = tested on: pERK in MKN1 cells; assay: as above; conditions: Homo sapiens, MKN-1, 3 h, read-out: Inhibition (HTRF IC50) of KRas-mediated Phosphorylation of ERK, MKN1
[4] = molecular target: KRas G12D (Homo sapiens, UniProt P01116, G12D); assay: biochemical;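 note: TR-FRET displacement binding assay on KRas, read after a one-hour incubation at room temperature, IC50 fitted from percent-of-control values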
KRas G12D, sequence (P01116 1-169 isoform P01116-2 G12D): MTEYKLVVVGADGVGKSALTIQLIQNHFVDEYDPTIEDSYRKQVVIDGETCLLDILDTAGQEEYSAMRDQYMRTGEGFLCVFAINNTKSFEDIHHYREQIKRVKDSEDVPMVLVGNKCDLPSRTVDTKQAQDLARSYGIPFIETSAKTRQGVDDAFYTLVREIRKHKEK
Protocol: (§1) The ability of a compound to bind to KRas was measured using a TR-FRET displacement assay. […] After a 60-minute incubation at room temperature, the reaction was measured using a BMG LABTECH CLARIO star Plus via TR-FRET. […] The POC values were fit to a 4-parameter IC50 equation and the IC50 value reported.

[5] = tested on: pERK in H727 cells; assay: Inhibition of KRas phosphorylation of ERK (Cisbio HTRF pERK assay); conditions: Homo sapiens, NCI-H727, read-out: Inhibition (HTRF IC50) of KRas-mediated Phosphorylation of ERK, H727
Protocol: To harvest cells from flask using 0.05% Trypsin/EDTA solution. Add 10 mL of media to stop trypsinizing. Pipette the cells into a conical bottom 50 mL centrifuge tube and centrifuge 5 min×1000 rpm. • 2. Re-suspend the cell pellet in media, take a cell count, and then adjust the cell density using fresh media. • 3. Seed 6,000 cells into cell culture plate with 50 μL media. […] Incubate cell plate overnight in a 37° C., 5% CO2 incubator. • Compound titrations • 1. Use Tecan to complete the compound addition. Compounds start from 10 uM top, 3-fold dilution, and 10 doses. The final DMSO concentration is 0.8%. Dispensed 0.2 uM Trametinib as Min control. • 2. Incubate cell plate for 3 hrs in the incubator. • Detection with cisbio pERK HTRF kit • 1. […] At the end of the compound treatment, flick-off the media. • 3. Add 35 μL of lysis buffer per well using a Multidrop Combi. Then place on a plate agitator shaking at 300 rpm at 4° C. for 40 mins. • 4. Make up the HTRF antibody buffer. For each assay plate, mix 50 μL of d2-conjugate antibody with 950 μL of detection buffer. Similarly, mix 50 μL of Cryptate antibody with 950 μL of detection buffer. Then mix the two diluted antibodies together. • 5. Dispense 3.4 μL the antibody buffer to wells of an empty assay plate. Seal the plate and centrifuge plate 30 sec×1000 rpm. • 6. At the end of the 4° C. lysis, centrifuge the lysate plates 3 mins×1500 rpm. • 7. Use the Bravo to transfer 13.6 μL of lysate from cell culture plate to assay plate.
Then incubate assay plate for 2 hrs at room temperature. […] At the end of incubation, read plate on the Envision after centrifuging plate 30 sec× • 1000 rpm.

[6] = tested on: pERK in A549 cells; assay: as above; conditions: Homo sapiens, A549, read-out: Inhibition (HTRF IC50) of KRas-mediated Phosphorylation of ERK, A549
[7] = molecular target: KRas G12V (Homo sapiens, UniProt P01116, G12V); assay: biochemical;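 note: KRas binding measured by TR-FRET displacement at room temperature, IC50 fitted from percent of control values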
KRas G12V, sequence (P01116 1-169 isoform P01116-2 G12V): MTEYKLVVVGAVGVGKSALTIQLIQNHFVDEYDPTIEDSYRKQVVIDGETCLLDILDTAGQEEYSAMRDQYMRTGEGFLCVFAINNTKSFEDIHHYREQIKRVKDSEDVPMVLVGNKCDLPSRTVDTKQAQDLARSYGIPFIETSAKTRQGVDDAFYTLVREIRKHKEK
Protocol: as §1

[8] = tested on: pERK in HCT116 cells; assay: Inhibition of KRas phosphorylation of ERK (Cisbio HTRF pERK assay); conditions: Homo sapiens, HCT-116, read-out: Inhibition (HTRF IC50) of KRas-mediated Phosphorylation of ERK, HCT116
[9] = molecular target: KRas G12R (Homo sapiens, UniProt P01116, G12R); assay: biochemical;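 note: TR-FRET displacement assay of compound binding to KRas, read after one hour at room temperature, potency from a four-parameter fit of percent-of-control values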
KRas G12R, sequence (P01116 1-169 isoform P01116-2 G12R): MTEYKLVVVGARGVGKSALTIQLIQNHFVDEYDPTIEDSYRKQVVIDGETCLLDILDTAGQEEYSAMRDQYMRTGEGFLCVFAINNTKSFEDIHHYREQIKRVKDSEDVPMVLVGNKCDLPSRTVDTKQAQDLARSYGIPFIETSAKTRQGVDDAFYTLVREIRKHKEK
Protocol: as §1

[10] = tested on: pERK in ASPC1 cells; assay: Inhibition of KRas phosphorylation of ERK (Cisbio HTRF pERK assay); conditions: Homo sapiens, ASPC1, read-out: Inhibition (HTRF IC50) of KRas-mediated Phosphorylation of ERK, AsPC-1

Row | SMILES | IC50 [1] [nM] | IC50 [2] [nM] | IC50 [3] [nM] | IC50 [4] [nM] | IC50 [5] [nM] | IC50 [6] [nM] | IC50 [7] [nM] | IC50 [8] [nM] | IC50 [9] [nM] | IC50 [10] [nM]
1 | Oc1cc(-c2ncc3c(N4CC5CC(O)CC4C5)nc(OC[C@@]45CCCN4C[C@H](F)C5)nc3c2F)c2c(Br)c(F)ccc2c1 (stereo partly drawn) [Example 403, 6-(7-(8-bromo-7-fluoro-3-hydroxynaphthalen-1-yl)-8-fluoro-2-(((2R,7aS)-2-fluorohexahydro-1H-pyrrolizin-7a-yl)methoxy)pyrido[4,3-d]pyrimidin-4-yl)-6-azabicyclo[3.2.1]octan-3-ol] | 182 | 3820 | 20 | 6 | 79 | 96 | ≤ 2 | 487 | ≤ 2 | 426
2 | CCc1c(F)ccc2cc(O)cc(-c3ncc4c(N5CCCC6(CNS(=O)(=O)N6)C5)nc(OCC5(CN(C)C)CC5)nc4c3F)c12 (stereo not drawn) [Example 364, 7-(2-((1-((dimethylamino)methyl)cyclopropyl)methoxy)-7-(8-ethyl-7-fluoro-3-hydroxynaphthalen-1-yl)-8-fluoropyrido[4,3-d]pyrimidin-4-yl)-2-thia-1,3,7-triazaspiro[4.5]decane 2,2-dioxide] | 117 | ≥ 10000 | 26 | ≤ 2 | 578 | 219 | ≤ 2 | 645 | ≤ 2 | 121
3 | CCc1c(F)ccc2cc(O)cc(-c3ncc4c(N5CCCC6(CCC(F)(F)C6)C5)nc(OC[C@@]56CCCN5C[C@H](F)C6)nc4c3F)c12 (stereo partly drawn) [Example 509, 4-(4-(2,2-difluoro-7-azaspiro[4.5]decan-7-yl)-8-fluoro-2-(((2R,7aS)-2-fluorohexahydro-1H-pyrrolizin-7a-yl)methoxy)pyrido[4,3-d]pyrimidin-7-yl)-5-ethyl-6-fluoronaphthalen-2-ol] | 206 | 6140 | 89 | 6 | 338 | 211 | 6 | 314 | 12 | 144
4 | CCc1c(F)ccc2cc(O)cc(-c3ncc4c(N5C[C@H](O)CC[C@@H](O)C5)nc(OC[C@@]56CCCN5C[C@H](F)C6)nc4c3F)c12 [Example 490, (3R,6R)-1-(7-(8-ethyl-7-fluoro-3-hydroxynaphthalen-1-yl)-8-fluoro-2-(((2R,7aS)-2-fluorohexahydro-1H-pyrrolizin-7a-yl)methoxy)pyrido[4,3-d]pyrimidin-4-yl)azepane-3,6-diol] | 305 | ≥ 10000 | 41 | ≤ 2 | 205 | 298 | ≤ 2 | 368 | 3 | 395
5 | CCc1c(F)ccc2cc(O)cc(-c3ncc4c(N5CCOCC6(COC6)C5)nc(OC[C@@]56CCCN5C[C@H](F)C6)nc4c3F)c12 [Example 480, 5-ethyl-6-fluoro-4-(8-fluoro-2-(((2R,7aS)-2-fluorohexahydro-1H-pyrrolizin-7a-yl)methoxy)-4-(2,6-dioxa-9-azaspiro[3.6]decan-9-yl)pyrido[4,3-d]pyrimidin-7-yl)naphthalen-2-ol] | 47 | ≥ 10000 | 6 | 38 | 100 | 215 | 7 | 111 | 6 | 240
6 | C#Cc1c(F)ccc2cc(O)cc(-c3ncc4c(N5CC6CC(O)CC5C6)nc(OC[C@@]56CCCN5C[C@H](F)C6)nc4c3F)c12 (stereo partly drawn) [Example 390, 6-(7-(8-ethynyl-7-fluoro-3-hydroxynaphthalen-1-yl)-8-fluoro-2-(((2R,7aS)-2-fluorohexahydro-1H-pyrrolizin-7a-yl)methoxy)pyrido[4,3-d]pyrimidin-4-yl)-6-azabicyclo[3,2,1]octan-3-ol] | 175 | 748 | 8 | ≤ 2 | 16 | 114 | ≤ 2 | 190 | ≤ 2 | 195

— patent US12398154B2, “Azaquinazoline pan-KRas inhibitors” (Mirati Therapeutics, Inc., priority 2020, dated 2025)
